Data: patent US20260226048A1, “MULTI-CYCLIC IRAK AND FLT3 INHIBITING COMPOUNDS AND USES THEREOF” (CHILDREN'S HOSPITAL MEDICAL CENTER, priority 2023, published 2026)

What was measured:
IRAK4 = target: T1, IRAK4 (Homo sapiens, UniProt Q9NWZ3); experiment: RBC HotSpot Kinase Assay, IRAK4; type: biochemical; parameters: purchased Reaction Biology (RBC HotSpot); details: isolated kinase enzyme, 33P-ATP, P81 filter-binding
T1 sequence (Q9NWZ3 1-460): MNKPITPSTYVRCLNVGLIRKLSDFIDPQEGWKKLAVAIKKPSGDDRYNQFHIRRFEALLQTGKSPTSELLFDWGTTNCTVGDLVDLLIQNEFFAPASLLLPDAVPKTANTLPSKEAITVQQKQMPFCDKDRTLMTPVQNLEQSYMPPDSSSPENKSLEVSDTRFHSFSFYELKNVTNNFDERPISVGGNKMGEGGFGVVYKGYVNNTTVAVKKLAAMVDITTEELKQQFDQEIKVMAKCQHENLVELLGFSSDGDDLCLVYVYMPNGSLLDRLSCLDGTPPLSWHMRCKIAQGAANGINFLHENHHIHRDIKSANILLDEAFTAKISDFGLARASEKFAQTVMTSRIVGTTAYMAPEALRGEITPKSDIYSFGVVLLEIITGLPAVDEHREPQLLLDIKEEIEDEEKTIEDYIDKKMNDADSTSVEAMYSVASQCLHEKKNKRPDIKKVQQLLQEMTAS
Method in brief: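 Radiometric filter-binding activity assay with isolated recombinant kinase (construct may be truncated or catalytic domain only) in 20 mM Hepes pH 7.5, 10 mM MgCl2, 1 mM EGTA, 2 mM DTT, 1% DMSO. Compound preincubated 20 min with kinase/substrate; reaction started with 33P-ATP, run 2 h at room temperature.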

IRAK1 = target: T2, IRAK1 (Homo sapiens, UniProt P51617); experiment: RBC HotSpot Kinase Assay, IRAK1; type: biochemical; details: isolated kinase enzyme, 33P-ATP, P81 filter-binding
T2 construct: purchased Reaction Biology (RBC HotSpot)
T2 sequence (P51617 whole entry): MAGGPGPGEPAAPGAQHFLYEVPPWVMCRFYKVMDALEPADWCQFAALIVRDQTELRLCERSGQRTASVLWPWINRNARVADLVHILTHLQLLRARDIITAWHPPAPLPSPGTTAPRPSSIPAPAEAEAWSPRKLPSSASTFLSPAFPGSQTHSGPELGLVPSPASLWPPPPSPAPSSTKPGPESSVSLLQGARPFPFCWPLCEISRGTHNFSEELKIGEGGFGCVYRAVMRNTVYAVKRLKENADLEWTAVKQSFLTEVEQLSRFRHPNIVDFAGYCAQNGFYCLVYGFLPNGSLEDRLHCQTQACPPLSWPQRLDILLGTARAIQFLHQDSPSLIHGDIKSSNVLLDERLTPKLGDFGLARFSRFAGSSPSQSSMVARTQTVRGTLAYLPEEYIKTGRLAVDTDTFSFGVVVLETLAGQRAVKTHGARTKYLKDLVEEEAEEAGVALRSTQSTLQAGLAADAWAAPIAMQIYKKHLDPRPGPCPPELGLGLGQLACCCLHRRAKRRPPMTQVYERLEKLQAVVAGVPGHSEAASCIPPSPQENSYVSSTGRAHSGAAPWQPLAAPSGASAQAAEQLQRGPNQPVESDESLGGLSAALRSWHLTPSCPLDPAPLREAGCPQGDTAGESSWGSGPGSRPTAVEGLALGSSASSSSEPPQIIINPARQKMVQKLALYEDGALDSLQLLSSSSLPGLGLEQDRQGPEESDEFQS
Method in brief: (§1)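 Reactions ran in 20 mM Hepes (pH 7.5) containing 10 mM MgCl2, 1 mM EGTA, 0.1 mM Na3VO4, 2 mM DTT, 0.02 mg/ml BSA, 0.01% Brij35 and 1% DMSO, plus required cofactors. Functional activity readout on the expressible enzyme form, sometimes C-terminally truncated or lacking receptor regulatory regions.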

FLT3 = target: T3, FLT3 (Homo sapiens, UniProt P36888); experiment: RBC HotSpot Kinase Assay, FLT3; type: biochemical; parameters: purchased Reaction Biology (RBC HotSpot); details: isolated kinase enzyme, 33P-ATP, P81 filter-binding
T3 sequence (P36888 27-993): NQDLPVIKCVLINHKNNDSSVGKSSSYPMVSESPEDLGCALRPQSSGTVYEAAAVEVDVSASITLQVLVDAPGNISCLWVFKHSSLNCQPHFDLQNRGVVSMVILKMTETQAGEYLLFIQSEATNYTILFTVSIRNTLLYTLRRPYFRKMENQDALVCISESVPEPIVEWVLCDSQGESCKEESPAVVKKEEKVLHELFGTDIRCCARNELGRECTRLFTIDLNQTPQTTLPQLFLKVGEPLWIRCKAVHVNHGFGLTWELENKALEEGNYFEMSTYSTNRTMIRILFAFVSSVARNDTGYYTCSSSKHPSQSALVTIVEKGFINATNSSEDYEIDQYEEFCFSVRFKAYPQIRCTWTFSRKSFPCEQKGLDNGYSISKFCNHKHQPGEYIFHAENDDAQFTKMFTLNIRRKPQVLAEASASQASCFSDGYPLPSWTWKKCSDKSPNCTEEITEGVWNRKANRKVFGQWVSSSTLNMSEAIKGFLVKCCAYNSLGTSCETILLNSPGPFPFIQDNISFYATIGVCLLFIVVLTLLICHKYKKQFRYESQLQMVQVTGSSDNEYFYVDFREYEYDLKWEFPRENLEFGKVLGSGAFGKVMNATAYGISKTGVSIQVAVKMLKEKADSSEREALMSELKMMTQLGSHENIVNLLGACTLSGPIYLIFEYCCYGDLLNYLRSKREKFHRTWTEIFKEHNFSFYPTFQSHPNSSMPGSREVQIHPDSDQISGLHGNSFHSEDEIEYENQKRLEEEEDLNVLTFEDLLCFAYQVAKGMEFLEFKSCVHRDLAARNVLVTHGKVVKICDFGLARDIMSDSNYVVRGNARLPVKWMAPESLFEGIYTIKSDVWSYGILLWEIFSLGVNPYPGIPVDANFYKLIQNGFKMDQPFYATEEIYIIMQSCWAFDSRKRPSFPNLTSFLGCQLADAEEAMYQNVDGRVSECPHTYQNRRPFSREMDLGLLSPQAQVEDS
Method in brief: as §1

MOLM14 F691L cells = experiment: MOLM14 F691L cell viability assay (Cell Titer Glo); type: cell-based; details: Homo sapiens, MOLM-14; cell viability, Cell Titer Glo, 48 hours; read-out: MOLM14 F691L IC50
Method in brief: (§2)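 Luminescent ATP read-out (CellTiter-Glo, 15 min room temperature) taken 48 h after compound addition. Cells were MOLM14 carrying FLT3 D835Y or F691L mutations, plated at 1000 cells per well.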

MOLM14 D835Y cells = experiment: MOLM14 D835Y cell viability assay (Cell Titer Glo); type: cell-based; details: Homo sapiens, MOLM-14, 48 h, cell viability, Cell Titer Glo, 48 hours; read-out: MOLM14 D835Y IC50
Method in brief: as §2

| Structure (SMILES) | IC50 (IRAK4) [nM] | IC50 (IRAK1) [nM] | IC50 (FLT3) [nM] | IC50 (MOLM14 F691L cells) [nM] | IC50 (MOLM14 D835Y cells) [nM] |
| --- | --- | --- | --- | --- | --- |
| COc1cc2ncc(-c3ccnc(N[C@H]4CNCC[C@@H]4F)n3)n2nc1C1COC1 [Compound 97a, N-((3S,4S)-4-fluoropiperidin-3-yl)-4-(7-methoxy-6-(oxetan-3-yl)imidazo[1,2-b]pyridazin-3-yl)pyrimidin-2-amine] | 4 | 361 | 0.7 | 318 | 32 |
| c1cc(-c2cnc3cc(OC4CC4)c(C4CC4)nn23)nc(N[C@@H]2CCCNC2)n1 [Compound 11a, (R)-4-(7-cyclopropoxy-6-cyclopropylimidazo[1,2-b]pyridazin-3-yl)-N-(piperidin-3-yl)pyrimidin-2-amine] | 5 | 52 | < 0.5 | 80 | 22 |
| COc1cc2ncc(-c3ccnc(N[C@@H]4CCCNC4)n3)n2nc1C1CCCCC1 [Compound 87a, (R)-4-(6-cyclohexyl-7-methoxyimidazo[1,2-b]pyridazin-3-yl)-N-(piperidin-3-yl)pyrimidin-2-amine] | 3 | 26 | < 0.5 | 252 | 28 |
| COc1cc2ncc(-c3ccnc(N[C@H]4CNCC[C@@H]4F)n3)n2nc1C1CCCC1 [Compound 85a, 4-(6-cyclopentyl-7-methoxyimidazo[1,2-b]pyridazin-3-yl)-N-((3S,4S)-4-fluoropiperidin-3-yl)pyrimidin-2-amine] | 1 | 7 | < 0.5 | 90 | 11 |
| COc1cc2ncc(-c3ccnc(N[C@H]4CNCC[C@@H]4F)n3)n2nc1C1CCO1 (stereo partly drawn) [Compound 109a, N-((3S,4S)-4-fluoropiperidin-3-yl)-4-(7-methoxy-6-(oxetan-2-yl)imidazo[1,2-b]pyridazin-3-yl)pyrimidin-2-amine] | 4 | 239 | 1 | 318 | 28 |
| COc1cc2ncc(-c3ccnc(N[C@H]4CNCC[C@@H]4F)n3)n2nc1C12CC(C1)C2 [Compound 91a, 4-(6-(bicyclo[1.1.1]pentan-1-yl)-7-methoxyimidazo[1,2-b]pyridazin-3-yl)-N-((3S,4S)-4-fluoropiperidin-3-yl)pyrimidin-2-amine] | 5 | 45 | < 0.5 | 283 | 28 |
| COc1cc2ncc(-c3ccnc(N[C@@H]4CCCNC4)n3)n2nc1C1CC(C)(C)C1 [Compound 81a] | 55 | 49 | < 0.5 | 1260 | 90 |
| COc1cc2ncc(-c3nc(N[C@@H]4CCCNC4)ncc3F)n2nc1N1CCS(=O)(=O)CC1 [Compound 124a, (R)-4-(3-(5-fluoro-2-(piperidin-3-ylamino)pyrimidin-4-yl)-7-methoxyimidazo[1,2-b]pyridazin-6-yl)thiomorpholine 1,1-dioxide] | 138 | 123 | 2 | 1130 | 90 |
| COc1cc2ncc(-c3nc(N[C@H]4CNCC[C@@H]4F)ncc3F)n2nc1N1CCCC1=O [Compound 108a, 1-(3-(5-fluoro-2-(((3S,4S)-4-fluoropiperidin-3-yl)amino)pyrimidin-4-yl)-7-methoxyimidazo[1,2-b]pyridazin-6-yl)pyrrolidin-2-one] | 57 | 241 | 2 | 798 | 80 |
| COc1cc2ncc(-c3ccnc(N[C@H]4CNC[C@@H]4F)n3)n2nc1C12CC(C1)C2 [Compound 89a, 4-(6-(bicyclo[1.1.1]pentan-1-yl)-7-methoxyimidazo[1,2-b]pyridazin-3-yl)-N-((3S,4S)-4-fluoropyrrolidin-3-yl)pyrimidin-2-amine] | 4 | 44 | < 0.5 | 160 | 18 |
